pIC50: −log10 of the molar value. Like-named read-outs stand apart in the source and are kept apart here.
Experiments:
recombinant human DHODH = recombinant human DHODH (Homo sapiens (Human), UniProt Q02127); experiment: DHODH enzyme assay (Assay A), DCIP absorbance; assay type: biochemical
Protocol: Inhibition of human dihydroorotate dehydrogenase (DHODH) by example compounds as described herein was determined using one of two assays as described below.
DHODH enzyme assays were performed with 6 nM recombinant human DHODH (purified essentially as described by Walse et al., Biochemistry, 47, 8929-8936 (2008)). The reaction mixture consisted of 1 mM DL-dihydroorotic acid (#D7003, Sigma-Aldrich), 100 μM 3,4-dimethoxy-5-methyl-p-benzoquinone (#D9150, Sigma-Aldrich), and 100 μM 2,6-dichlorophenolindophenol sodium salt (DCIP) (#D1878, Sigma-Aldrich) in enzyme buffer (50 mM Tris-HCl pH 8.0, 0.1% Triton X-100, 150 mM KCl). A stock solution of 20 mM DCIP was prepared in enzyme buffer and filtered through Whatman paper just before use. Reactions were performed in a total volume of 100 μL, consisting of 1 μL of compound, 49 μL of enzyme and 50 μL of reaction mixture. Loss in absorbance by chromogen DCIP was measured at 595 nm following a 70 minute incubation at 32° C.

MOLM-13 cells = experiment: MOLM-13 cell viability (Assay B), Cell Titer-Glo; assay type: cell-based; details: Homo sapiens, read-out: IC50 MOLM13 inhibition activity
Protocol: MOLM-13 cells (an acute myeloid leukemia cell line) were plated in RPMI supplied with 10% FBS and 1% Pen/Strep in 384-well plates at 1,000 cells per well on day 0. On day 1, treatment of the cells with compound (concentration range 10E-5 and 6E-12 M) was initiated in the presence or absence of 100 μM uridine. After 72 hours incubation of the cells with or without test compound, the number of viable cells per well was assessed by Cell Titer-Glo Luminescent Cell Viability Assay (Promega, Madison, WI, USA). […] Each condition was tested in duplicate and the potency of test compounds was determined from two independent experiments.

[1] = bins ≥10 nM-<100 nM and <10 nM, read-out: IC50 DHODH inhibition activity
[2] = MOLM-13, 72 hours, bins ≥10 nM-<100 nM and <10 nM
[3] = bin ≥1 μM-<10 μM, read-out: IC50 DHODH inhibition activity

Chain of recombinant human DHODH (Q02127 whole entry): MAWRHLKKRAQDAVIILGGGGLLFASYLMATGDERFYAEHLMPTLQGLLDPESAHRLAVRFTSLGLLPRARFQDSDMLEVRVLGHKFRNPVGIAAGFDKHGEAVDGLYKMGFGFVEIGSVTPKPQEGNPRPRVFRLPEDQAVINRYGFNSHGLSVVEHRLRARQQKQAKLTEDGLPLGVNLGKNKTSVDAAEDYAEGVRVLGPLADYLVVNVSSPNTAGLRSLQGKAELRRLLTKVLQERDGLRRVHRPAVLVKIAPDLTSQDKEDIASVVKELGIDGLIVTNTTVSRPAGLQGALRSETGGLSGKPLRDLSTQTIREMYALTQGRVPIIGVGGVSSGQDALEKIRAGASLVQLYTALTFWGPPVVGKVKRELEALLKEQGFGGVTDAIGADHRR

COc1cccc(-n2ncc3c2COC[C@H]3NC(=O)c2ncn3c2CCCC3)c1Cl [Ex-21, (S)—N-(1-(2-chloro-3-methoxyphenyl)-1,4,5,7-tetrahydropyrano[3,4-c]pyrazol-4-yl)-5,6,7,8-tetrahydroimidazo[1,5-a]pyridine-1-carboxamide]
pIC50 (recombinant human DHODH; [1]): > 8.00
pIC50 (MOLM-13 cells; MOLM-13, 72 h): > 8.00

Cc1cccc(-n2ncc3c2COC[C@H]3NC(=O)c2ncc3n2CCCC3)c1Cl [Ex-16, (S)—N-(1-(2-chloro-3-methylphenyl)-1,4,5,7-tetrahydropyrano[3,4-c]pyrazol-4-yl)-5,6,7,8-tetrahydroimidazo[1,5-a]pyridine-3-carboxamide]
pIC50 (recombinant human DHODH; [1]): > 8.00
pIC50 (MOLM-13 cells; [2]): > 8.00

Cc1cccc(Cl)c1-n1ncc2c1COC[C@H]2NC(=O)c1n[nH]c2c1CCCC2 [Ex-37, (S)—N-(1-(2-chloro-6-methylphenyl)-1,4,5,7-tetrahydropyrano[3,4-c]pyrazol-4-yl)-4,5,6,7-tetrahydro-1H-indazole-3-carboxamide]
pIC50 (recombinant human DHODH; [1]): 7.00 to 8.00
pIC50 (MOLM-13 cells; [2]): 7.00 to 8.00

COc1cccc(Cl)c1-n1ncc2c1COC[C@H]2NC(=O)c1ncn2c1CCCC2 [Ex-60, (S)—N-(1-(2-chloro-6-methoxyphenyl)-1,4,5,7-tetrahydropyrano[3,4-c]pyrazol-4-yl)-5,6,7,8-tetrahydroimidazo[1,5-a]pyridine-1-carboxamide]
pIC50 (recombinant human DHODH; [1]): 7.00 to 8.00
pIC50 (MOLM-13 cells; [2]): 7.00 to 8.00

COc1ccc(F)c(-n2ncc3c2COC[C@H]3NC(=O)c2cc(C)c(C)cn2)c1Cl [Ex-33, (S)—N-(1-(2-chloro-6-fluoro-3-methoxyphenyl)-1,4,5,7-tetrahydropyrano[3,4-c]pyrazol-4-yl)-4,5-dimethylpicolinamide]
pIC50 (recombinant human DHODH; [1]): 7.00 to 8.00
pIC50 (MOLM-13 cells; [2]): 7.00 to 8.00

CCc1c(C(=O)N[C@@H]2COCc3c2cnn3-c2c(F)ccc(OC)c2Cl)ncn1C [Ex-28, (S)—N-(1-(2-chloro-6-fluoro-3-methoxyphenyl)-1,4,5,7-tetrahydropyrano[3,4-c]pyrazol-4-yl)-5-ethyl-1-methyl-1H-imidazole-4-carboxamide]
pIC50 (recombinant human DHODH; [1]): > 8.00
pIC50 (MOLM-13 cells; [2]): > 8.00

CNC(=O)COc1cccc(-n2ncc3c2COC[C@H]3NC(=O)c2ncn3c2CCCC3)c1Cl [Ex-65, (S)—N-(1-(2-chloro-3-(2-(methylamino)-2-oxoethoxy)phenyl)-1,4,5,7-tetrahydropyrano[3,4-c]pyrazol-4-yl)-5,6,7,8-tetrahydroimidazo[1,5-a]pyridine-1-carboxamide]
pIC50 (recombinant human DHODH): 7.00 to 8.00

CN(C)CCOc1cccc(-n2ncc3c2COC[C@H]3NC(=O)c2ncn3c2CCCC3)c1Cl [Ex-63, (S)—N-(1-(2-chloro-3-(2-(dimethylamino)ethoxy)phenyl)-1,4,5,7-tetrahydropyrano[3,4-c]pyrazol-4-yl)-5,6,7,8-tetrahydroimidazo[1,5-a]pyridine-1-carboxamide]
pIC50 (recombinant human DHODH): 7.00 to 8.00

COc1ccc(F)c(-n2ncc3c2COC[C@H]3NC(=O)c2ncc3n2CCCC3)c1Cl [Ex-29, (S)—N-(1-(2-chloro-6-fluoro-3-methoxyphenyl)-1,4,5,7-tetrahydropyrano[3,4-c]pyrazol-4-yl)-5,6,7,8-tetrahydroimidazo[1,5-a]pyridine-3-carboxamide]
pIC50 (recombinant human DHODH; [1]): > 8.00
pIC50 (MOLM-13 cells; [2]): > 8.00

CS(=O)(=O)c1cccc(-n2ncc3c2COC[C@H]3NC(=O)c2ncn3c2CCCC3)c1 [Ex-49, (S)—N-(1-(3-(methylsulfonyl)phenyl)-1,4,5,7-tetrahydropyrano[3,4-c]pyrazol-4-yl)-5,6,7,8-tetrahydroimidazo[1,5-a]pyridine-1-carboxamide]
pIC50 (recombinant human DHODH; [3]): 5.00 to 6.00

CC(=O)NCCOc1cccc(-n2ncc3c2COC[C@H]3NC(=O)c2ncn3c2CCCC3)c1Cl [Ex-66, (S)—N-(1-(3-(2-acetamidoethoxy)-2-chlorophenyl)-1,4,5,7-tetrahydropyrano[3,4-c]pyrazol-4-yl)-5,6,7,8-tetrahydroimidazo[1,5-a]pyridine-1-carboxamide]
pIC50 (recombinant human DHODH): 7.00 to 8.00

Cc1cccc(-n2ncc3c2COC[C@H]3NC(=O)c2n[nH]c3c2CCCC3)c1Cl [Ex-17, (S)—N-(1-(2-chloro-3-methylphenyl)-1,4,5,7-tetrahydropyrano[3,4-c]pyrazol-4-yl)-4,5,6,7-tetrahydro-1H-indazole-3-carboxamide]
pIC50 (recombinant human DHODH; [1]): 7.00 to 8.00
pIC50 (MOLM-13 cells; [2]): 7.00 to 8.00

CCN(CC)C(=O)c1cccc(-n2ncc3c2COC[C@H]3NC(=O)c2ncn3c2CCCC3)c1Cl [Ex-74, (S)—N-(1-(2-chloro-3-(diethylcarbamoyl)phenyl)-1,4,5,7-tetrahydropyrano[3,4-c]pyrazol-4-yl)-5,6,7,8-tetrahydroimidazo[1,5-a]pyridine-1-carboxamide]
pIC50 (recombinant human DHODH; [1]): 7.00 to 8.00
pIC50 (MOLM-13 cells; [2]): 7.00 to 8.00

CCc1c(C(=O)N[C@@H]2COCc3c2cnn3-c2c(C)cccc2Cl)ncn1C [Ex-35, (S)—N-(1-(2-chloro-6-methylphenyl)-1,4,5,7-tetrahydropyrano[3,4-c]pyrazol-4-yl)-5-ethyl-1-methyl-1H-imidazole-4-carboxamide]
pIC50 (recombinant human DHODH; [1]): > 8.00
pIC50 (MOLM-13 cells; [2]): > 8.00

O=C(N[C@H]1COCc2c1cnn2-c1c(Cl)cccc1Cl)c1ncn2c1CCCC2 (single isomer, unassigned) [Ex-12]
pIC50 (MOLM-13 cells; [2]): 7.00 to 8.00

O=C(N[C@@H]1COCc2c1cnn2-c1cccc(C(F)(F)F)c1Cl)c1ncn2c1CCCC2 [Ex-50, (S)—N-(1-(2-chloro-3-(trifluoromethyl)phenyl)-1,4,5,7-tetrahydropyrano[3,4-c]pyrazol-4-yl)-5,6,7,8-tetrahydroimidazo[1,5-a]pyridine-1-carboxamide]
pIC50 (recombinant human DHODH; [1]): 7.00 to 8.00
pIC50 (MOLM-13 cells; [2]): > 8.00

CCc1c(C(=O)N[C@@H]2COCc3c2cnn3-c2cccc(C)c2Cl)ncn1C [Ex-15, (S)—N-(1-(2-chloro-3-methylphenyl)-1,4,5,7-tetrahydropyrano[3,4-c]pyrazol-4-yl)-5-ethyl-1-methyl-1H-imidazole-4-carboxamide]
pIC50 (recombinant human DHODH; [1]): > 8.00
pIC50 (MOLM-13 cells; [2]): > 8.00

CCc1c(C(=O)N[C@@H]2COCc3c2cnn3-c2cccc(OC)c2Cl)ncn1C [Ex-22, (S)—N-(1-(2-chloro-3-methoxyphenyl)-1,4,5,7-tetrahydropyrano[3,4-c]pyrazol-4-yl)-5-ethyl-1-methyl-1H-imidazole-4-carboxamide]
pIC50 (recombinant human DHODH; [1]): > 8.00
pIC50 (MOLM-13 cells; [2]): > 8.00

O=C(N[C@@H]1COCc2c1cnn2-c1cccc(O)c1Cl)c1ncn2c1CCCC2 [Ex-62, (S)—N-(1-(2-chloro-3-hydroxyphenyl)-1,4,5,7-tetrahydropyrano[3,4-c]pyrazol-4-yl)-5,6,7,8-tetrahydroimidazo[1,5-a]pyridine-1-carboxamide]
pIC50 (recombinant human DHODH): 7.00 to 8.00
pIC50 (MOLM-13 cells; MOLM-13, 72 h): 7.00 to 8.00

Cc1cnc(C(=O)N[C@@H]2COCc3c2cnn3-c2c(C)cccc2Cl)cc1C [Ex-40, (S)—N-(1-(2-chloro-6-methylphenyl)-1,4,5,7-tetrahydropyrano[3,4-c]pyrazol-4-yl)-4,5-dimethylpicolinamide]
pIC50 (MOLM-13 cells; [2]): 7.00 to 8.00

COc1cccc(-n2ncc3c2COC[C@H]3NC(=O)c2cc(C)c(C)cn2)c1Cl
pIC50 (MOLM-13 cells; [2]): 7.00 to 8.00

O=C(N[C@H]1COCc2c1cnn2-c1ccccc1F)c1ncn2c1CCCC2 (single isomer, unassigned) [Ex-2]
pIC50 (recombinant human DHODH; [3]): 5.00 to 6.00

CN(C)C(=O)c1cccc(-n2ncc3c2COC[C@H]3NC(=O)c2ncn3c2CCCC3)c1Cl [Ex-70, (S)—N-(1-(2-chloro-3-(dimethylcarbamoyl)phenyl)-1,4,5,7-tetrahydropyrano[3,4-c]pyrazol-4-yl)-5,6,7,8-tetrahydroimidazo[1,5-a]pyridine-1-carboxamide]
pIC50 (MOLM-13 cells; MOLM-13, 72 h): 7.00 to 8.00

O=C(N[C@H]1COCc2c1cnn2-c1ccccc1F)c1ncc2n1CCCC2 (single isomer, unassigned) [Ex-5]
pIC50 (recombinant human DHODH; [3]): 5.00 to 6.00
